Patent US7279444B2, “Substituted benzoylpyrazoles” (Bayer CropScience GmbH, priority 1999, dated 2007)
Where two headings read alike, the source gives them in different places. Marks after values point to notes of the source that are not given here.

Key:
[1] = log P by HPLC on reversed-phase column (C 18), acidic range; assay type: physicochemical
Experimental: Temperature: 43° C. […] The log P values given in Table 3 were determined in accordance with EEC Directive 79/831 Annex V.A8 by HPLC (High Performance Liquid Chromatography) on a reversed-phase column (C 18). Temperature: 43° C. […] The log P values given in Tables 4 were determined in accordance with EEC Directive 79/831 Annex V.A8 by HPLC (High Performance Liquid Chromatography) on a reversed-phase column (C 18). Temperature: 43° C.

[2] = test system: weeds; assay: Pre-emergence test, activity against weeds; assay type: in vivo; conditions: soil sprayed about 24 hours after sowing, rated after three weeks
Experimental: (§1) Pre-Emergence Test Solvent: 5 parts by weight of acetone Emulsifier: 1 part by weight of alkylaryl polyglycol ether To produce a suitable preparation of active compound, 1 part by weight of active compound is mixed with the stated amount of solvent, the stated amount of emulsifier is added and the concentrate is diluted with water to the desired concentration. Seeds of the test plants are sown in normal soil. After about 24 hours, the soil is sprayed with the preparation of active compound such that the particular amount of active compound is applied per unit area. The concentration of the spray liquor is chosen such that the particular amount of active compound desired is applied in 1000 liters of water per hectare. After three weeks, the degree of damage to plants is rated in % damage in comparison to the development of the untreated control. The figures denote: • 0%=no effect (like untreated control) • 100%=total destruction

[3] = test system: crop plants such as, for example, corn; assay: Pre-emergence test, tolerance by crop plants; assay type: in vivo; conditions: rated after three weeks
Experimental: as §1

[4] = test system: weeds; assay: Post-emergence test, activity against weeds; assay type: in vivo; conditions: test plants of 5-15 cm sprayed, rated after three weeks
Experimental: Solvent: 5 parts by weight of acetone
Emulsifier: 1 part by weight of alkylaryl polyglycol ether
To produce a suitable preparation of active compound, 1 part by weight of active compound is mixed with the stated amount of solvent, the stated amount of emulsifier is added and the concentrate is diluted with water to the desired concentration.
Test plants of a height of 5-15 cm are sprayed with the preparation of active compound such that the particular amounts of active compound are applied per unit area. The concentration of the spray liquor is chosen such that the particular amounts of active compound desired are applied in 10001 of water/ha.
After three weeks, the degree of damage to the plants is rated in % damage in comparison to the development of the untreated control.
• 0%=no effect (like untreated control) • 100%=total destruction

[5] = marked a): acidic range, 0.1% aqueous phosphoric acid/acetonitrile gradient, HPLC reversed-phase C 18, 43° C., Table 1

Row | Compound | logP [1] | further results
1 | CCOc1nn(Cc2cc(C(F)(F)F)ccc2C(=O)c2cnn(CC)c2O)c(=O)n1C [Example 2] |  | logP [1, 5]: logP = 2.34^a); activity against weeds (degree of damage) [2]: strong activity; tolerance by crop plants [3]: tolerated well; activity against weeds (degree of damage) [4]: strong activity
2 | CCn1ncc(C(=O)c2ccc(C(F)(F)F)cc2Cn2nc(SC)n(C)c2=O)c1O [Example 3] |  | logP [1, 5]: logP = 2.22^a); activity against weeds (degree of damage) [2]: strong activity; tolerance by crop plants [3]: tolerated well; activity against weeds (degree of damage) [4]: strong activity
3 | Cn1c(C(F)(F)F)nn(Cc2c(Cl)ccc(C(=O)O)c2Cl)c1=O [III-3, 4-methyl-5-trifluoromethyl-2-(2,6-dichloro-3-carboxy-benzyl)-2,4-dihydro-3H-1,2,4-triazol-3-one] |  | melting point: 207 °C
4 | COC(=O)c1ccc(Cl)c(Cn2nc(C(F)(F)F)n(C)c2=O)c1Cl [IV-2, 4-methyl-5-trifluoromethyl-2-(2,6-dichloro-3-methoxycarbonyl-benzyl)-2,4-dihydro-3H-1,2,4-triazol-3-one] |  | melting point: 109 °C
5 | CCOC(=O)c1ccc(F)cc1Cn1nc(OC)n(C2CC2)c1=O [IV-97] | logP = 2.50^a) | 
6 | CCOC(=O)c1ccc(F)cc1Cn1nc(OCC)n(C2CC2)c1=O [IV-98] | logP = 2.89^a) | 
7 | CCOC(=O)c1ccc(C(F)(F)F)cc1CN1N=C(C)C(C)(C)C1=O [IV-99] | logP = 2.91^a) | 
8 | CCOC(=O)c1ccc(C(F)(F)F)cc1Cn1c(=O)n(C)c(=O)n1C [IV-113] | logP = 2.58^a) | 
9 | COC(=O)c1ccc(S(C)(=O)=O)cc1Cn1nc(SC)n(C)c1=O [IV-114] | logP = 1.53^a) | 
10 | CCOc1nn(Cc2cc(S(C)(=O)=O)ccc2C(=O)OC)c(=O)n1C [IV-115] | logP = 1.59^a) | 
11 | CCOc1nn(Cc2cc(I)ccc2C(=O)OC)c(=O)n1C [IV-116] | logP = 2.68^a) | 
12 | CCOc1nn(Cc2cc(C(F)(F)F)ccc2C(=O)OC)c(=O)n1C [IV-117] | logP = 2.74^a) | 
13 | COC(=O)c1ccc(C(F)(F)F)cc1Cn1nc(SC)n(C)c1=O [IV-118] | logP = 2.65^a) | 
14 | CCOC(=O)c1ccc(C(F)(F)F)cc1Cn1nc(Br)n(C)c1=O [IV-119] | logP = 2.96^a) | 
